How the values were obtained:
[1] = target: T1, Adenosine receptor A3 (Homo sapiens, UniProt P0DMS8); experiment: Displacement of [3H]-NECA from human A3AR stably expressed in HeLa cell membrane; type: cell membranes
T1 sequence (P0DMS8 whole entry): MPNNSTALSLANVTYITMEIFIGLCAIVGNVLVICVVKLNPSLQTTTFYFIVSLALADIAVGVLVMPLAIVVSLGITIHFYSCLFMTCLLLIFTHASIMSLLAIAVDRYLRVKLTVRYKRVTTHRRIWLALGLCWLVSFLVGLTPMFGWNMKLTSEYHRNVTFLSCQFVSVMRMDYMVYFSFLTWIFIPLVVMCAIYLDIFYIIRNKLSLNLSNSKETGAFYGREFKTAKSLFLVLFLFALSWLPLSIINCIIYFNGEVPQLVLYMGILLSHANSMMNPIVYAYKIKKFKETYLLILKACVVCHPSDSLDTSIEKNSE

[2] = target: T2, Adenosine receptor A3 (Homo sapiens) (UniProt P0DMS8); experiment: Displacement of [3H]-NECA from human A3AR stably expressed in HeLa cell membrane at 10 uM relative to control; type: cell membranes
T2 sequence (whole entry): T1 sequence (P0DMS8 whole entry)

| Compound | Ki [1] [nM] | inhibition [2] [%] |
| --- | --- | --- |
| C[C@]12C[C@@H]1[C@@H](n1cnc3c(NCc4cccc(Cl)c4)ncnc31)[C@H](O)[C@@H]2O | 70.3 | – |
| C[C@]12C[C@@H]1[C@@H](n1cnc3c(N)nc(Cl)nc31)[C@H](O)[C@@H]2O | – | 89 |
| C[C@]12C[C@@H]1[C@@H](n1cnc3c(NCc4cccc(F)c4)nc(Cl)nc31)[C@H](O)[C@@H]2O | 124 | – |

— ChEMBL document CHEMBL6109068, “Design, synthesis, and biological evaluation of 5'-deoxy (N)-methanocarbanucleoside derivatives as A3 adenosine receptor ligands” (Bioorg Med Chem Lett, 2025)
